Among the test systems are HCC-2998 colon; CAKI-1 renal; HOP-92 NSCLC; SF-268 CNS; KM12 colon; HL-60(TB) leukemia; TK-10 renal; RXF 393 renal; K-562 leukemia; SK-OV-3 ovarian.
What all share (assay): NCI anticancer screen, dose series, 48 h

Drawing on PubChem BioAssay (NCI), this text covers GI50 and TGI for six compounds.

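These data come from cells grown in 96-well plates and exposed to compound for 48 hours at five concentrations. At the GI50, growth is halved. Definition used: TGI = concentration required for complete inhibition of growth.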 A value given as a limit tells only on which side of the number the result lay.

As for `S=C(Nc1ccc(-c2nc3ccccc3[nH]2)cc1)Nc1ccc(-c2nc3ccccc3[nH]2)cc1`, the GI50 in the test with HCC-2998 colon was 45.8 µM; in the test with CAKI-1 renal, 69.7 µM; in the test on HOP-92 NSCLC it was greater than 100 µM; in the test with SF-268 CNS, greater than 100 µM; in the test on KM12 colon it was 43.5 µM; in the test with HL-60(TB) leukemia, greater than 100 µM. Besides, the GI50 is 32.4 µM with TK-10 renal, greater than 100 µM with RXF 393 renal, 83.4 µM with K-562 leukemia and greater than 100 µM with SK-OV-3 ovarian. The TGI in the test on HCC-2998 colon, in the test with CAKI-1 renal, with HOP-92 NSCLC, with SF-268 CNS, with KM12 colon and in the test with HL-60(TB) leukemia was greater than 100 µM in each case. The TGI in the test on TK-10 renal, in the test with RXF 393 renal, in the test on K-562 leukemia and with SK-OV-3 ovarian was greater than 100 µM in each case.

Take `CCC[CH2][Sn]1([CH2]CCC)[O]CC(CN(C)Cc2ccccc2)[O]1` (centres undefined): the GI50 in the test with HCC-2998 colon is 11 µM; with CAKI-1 renal it was 1.47 µM; in the test with HOP-92 NSCLC, 3.94 µM; with SF-268 CNS, 5.89 µM; in the test on KM12 colon, 13.9 µM; in the test on HL-60(TB) leukemia, 0.473 µM. Also, the GI50 in the test on TK-10 renal is 3.63 µM; in the test with K-562 leukemia, 2.76 µM; in the test on SK-OV-3 ovarian it was 15.6 µM. In addition, the TGI in the test on HCC-2998 colon amounted to 23.3 µM; with CAKI-1 renal, 7.13 µM; in the test on HOP-92 NSCLC, 19.7 µM; in the test with SF-268 CNS, 17.7 µM; in the test with KM12 colon, 26.8 µM; with HL-60(TB) leukemia, 2.08 µM. For the same compound, the TGI in the test on TK-10 renal amounted to 11.4 µM; in the test on RXF 393 renal, 23.1 µM; in the test with K-562 leukemia, 12.9 µM; in the test with SK-OV-3 ovarian it was 33.2 µM.

Consider `NCCCCCCCn1c2c(c3ccccc3c1=O)C(=O)c1ccccc1-2`, for which the GI50 is 2.69 µM in the test on HCC-2998 colon; 1.96 µM in the test on CAKI-1 renal; 0.808 µM with HOP-92 NSCLC; 2.1 µM in the test on SF-268 CNS; 1.68 µM in the test on KM12 colon; 1.38 µM in the test with HL-60(TB) leukemia. The GI50 in the test on TK-10 renal was 1.67 µM; with RXF 393 renal it was 1.57 µM; in the test with K-562 leukemia, 1.31 µM; in the test on SK-OV-3 ovarian it was 2.96 µM. In addition, the TGI was found to be 7.56 µM with HCC-2998 colon; 5.25 µM with CAKI-1 renal; 2.44 µM in the test on HOP-92 NSCLC; 6.34 µM in the test on SF-268 CNS; 3.82 µM with KM12 colon; 2.87 µM in the test with HL-60(TB) leukemia. For the same compound, the TGI with TK-10 renal stood at 3.29 µM; with RXF 393 renal it was 3.39 µM; with K-562 leukemia, 2.62 µM; in the test on SK-OV-3 ovarian, 9.24 µM.

In the case of `CCOC(=O)C1c2[nH]c3ccccc3c2CCN1C(=O)c1ccc(OC)o1` (centres undefined), the TGI in the test with HCC-2998 colon, in the test on CAKI-1 renal, in the test with HOP-92 NSCLC, with SF-268 CNS, in the test with KM12 colon and in the test on HL-60(TB) leukemia was greater than 10 µM in each case. Moreover, the TGI in the test on TK-10 renal, in the test with RXF 393 renal, in the test on K-562 leukemia and in the test on SK-OV-3 ovarian was greater than 10 µM each time.

As to `CNC(=O)c1ccccc1Nc1nc(Nc2cc(OC)c(OC)c(OC)c2)ncc1Br`, the GI50 in the test on HCC-2998 colon was 0.027 µM; in the test with CAKI-1 renal, 0.0155 µM; in the test on HOP-92 NSCLC it was less than 0.0152 µM; with SF-268 CNS it was 0.0384 µM; in the test with KM12 colon, less than 0.0136 µM; in the test with HL-60(TB) leukemia, 0.0245 µM. The GI50 with TK-10 renal was 0.0186 µM; in the test with RXF 393 renal, 0.0154 µM; in the test on K-562 leukemia, 0.0874 µM; in the test with SK-OV-3 ovarian it was 0.0309 µM. The TGI came to 1.54 µM with HCC-2998 colon; 0.275 µM with CAKI-1 renal; 0.0874 µM in the test with HOP-92 NSCLC; 2.18 µM with SF-268 CNS; 4.98 µM in the test on KM12 colon; 0.181 µM with HL-60(TB) leukemia. Further, the TGI is 0.648 µM in the test on TK-10 renal, 0.0712 µM in the test on RXF 393 renal, greater than 38.9 µM in the test on K-562 leukemia and 5.13 µM in the test with SK-OV-3 ovarian.

Take `O=c1ncc(F)cn1C1OC(CO)C(O)C1O` (centres undefined): the TGI in the test on HCC-2998 colon is greater than 51.4 µM; in the test on CAKI-1 renal, greater than 100 µM; in the test with HOP-92 NSCLC it was greater than 100 µM; with SF-268 CNS, greater than 77.4 µM; with KM12 colon, greater than 51.2 µM; with HL-60(TB) leukemia, greater than 52 µM. Further, the TGI in the test with TK-10 renal, with RXF 393 renal, in the test with K-562 leukemia and in the test on SK-OV-3 ovarian was greater than 100 µM in each case.
